Laboratory results taken from PMC7369637, “Inhibition of Resistance-Refractory P. falciparum Kinase PKG Delivers Prophylactic, Blood Stage, and Transmission-Blocking Antiplasmodial Activity” (Cell Chemical Biology, 2020).
Where “and” joins values, the source holds several entries; their conditions need not be identical. Identical values can stand only once.

Columns and labels:
[1] = tested on: recombinant TKL3 kinase domain; assay: Radioactive in vitro kinase assay with recombinant TKL3 kinase domain; format: biochemical, Plasmodium falciparum; conditions: 20 μM compound
Experimental: Recombinant proteins were expressed in E. coli as previously described ([Abdi et al., 2010]). […] The cultures were then cooled to 20°C followed by induction of protein expression with 0.5 mM IPTG and further incubation at 20°C, 200 rpm for 16 h. Cultures were harvested by centrifugation at 4000g, 4°C for 10 min. Bacterial pellets were washed once in 1× PBS and were stored at −80°C. Cell pellets were resuspended in ice-cold Lysis Buffer (50 mM sodium phosphate, pH 8.0, 400 mM NaCl, 5 % (w/v) glycerol, 0.1 % (v/v) Triton X-100, 20 mM imidazole, 2 mM β-mercaptoethanol, 1× Roche protease inhibitor cocktail EDTA-free, 1 mg/ml lysozyme). Cells were disrupted by sonication. Protein was bound on a HisTrap HP column and eluted with a linear gradient of increasing imidazole concentrations. The peak fractions as determined by A280 trace were pooled together and further purified by size exclusion chromatography on a S200 gel filtration column equilibrated in 25 mM Tris pH 7.5, 100 mM NaCl, 5 % (w/v) glycerol, 1 mM DTT. Protein was pooled and concentrated. Final concentration was determined using a Bradford assay with a BSA protein standard.
Kinase assays containing 3 μg of recombinant kinase (WT or mutant) were performed in kinase assay buffer (25 mM Hepes, pH 7.5, 2 mM MnCl2, 10 mM β-glycerophosphate, 10 mM NaF, 25 μM ATP (containing 5 μCi [γ-^32P]-ATP-3000 mCi/mmol (PerkinElmer)), 5 μg substrate myelin basic protein (MBP) and ± 20 μM inhibitor) in a final reaction volume of 20 μl and incubated at 30°C for 30 min. Reactions were stopped by the addition of 5× Laemmli sample buffer and heated to 98°C for 5 min. Proteins were resolved by 4-12 % SDS-PAGE and stained in Coomassie Brilliant Blue. Kinase activity was detected by phosphorimaging. Imaging was performed on a Typhoon 5 Biomolecular imager (GE Healthcare Life Sciences).

[2] = tested on: Pf Dd2-B2 ABS parasites; assay: 72-h asexual blood stage (ABS) growth inhibition assay, Dd2-B2; format: cell-based, Plasmodium falciparum; conditions: Dd2-B2 wild-type, 72 h; read-out: Mean IC50, 72 h ABS activity
Experimental: (§1) Synchronicity was achieved using three rounds of sorbitol treatment on early rings, spaced 48 h apart, followed by magnetic purification of segmented schizonts following the final sorbitol treatment. Parasites were highly synchronous to within a 3 h window of development. Assays were repeated on at least three independent occasions (each with technical duplicates) and statistical significance was assessed using Mann Whitney U tests.

[3] = tested on: sel. Dd2-B2 TKL3T1268R; assay: 72-h ABS assay, MMV030084-selected line; format: cell-based, Plasmodium falciparum
Experimental: as §1
The resulting MMV030084-resistant parasites were cloned by limiting dilution ([Baker et al., 2017]) to obtain genetically homogenous cultures for further phenotyping and whole-genome sequencing. A second round of […]. […] Drug susceptibility of resistant lines was assessed using a 72 h ABS assay as described above, and a Mann Whitney U test was applied to assess statistically significant differences.

[4] = target: URP cKD line; assay: Compound susceptibility assay using cKD lines (72 h, Renilla luciferase); format: cell-based, Plasmodium falciparum
Description: (§2) To study the interaction between the compounds and PKG (PF3D7_1436600), AAT (PF3D7_1231400), CDPK1 (PF3D7_0217500), TKL3 (PF3D7_1349300), PP1 (PF3D7_1414400), and URP (PF3D7_0808300), cKD lines were generated by fusing the transcripts with RNA aptamers for translation regulation with the TetR/DOZI system ([Ganesan et al., 2016]). The right homology regions (RHR) of each target gene were amplified by PCR, using the primers listed in Table S1 (A), and along with the left homology regions (LHR) were fused to the re-codonized 3'-end region of the gene. Single guide RNA fragments were synthesized using the BioXP™ 3200 System (SGI-DNA; Table S1 (A)) and were cloned into the pSN054 vector ([Nasamu et al., 2019]) to install the C-terminal epitope tags V5 and 2x-hemagglutinin (HA) followed by a 10x RNA aptamer array and the TetR-DOZI expression cassette. This cassette also contained Blasticidin S-deaminase for selection in the parasites and the reporter gene Renilla luciferase (RLuc). The 3'-end of each target was re-codonized to avoid further modifications of the edited locus in the parasite via removal of the PAM site. Donor vector generation was carried out via Gibson assembly, and the final construct sequence was confirmed by restriction digests and Sanger sequencing.
(§3) Transfection into parasites was carried out by preloading erythrocytes with linearized vectors as described previously ([Deitsch et al., 2001]). Briefly, 50 μg of purified plasmid DNA was mixed with human RBC and subjected to 8 square wave electroporation pulses of 365 V for 1 ms each, separated by 0.1 s in a 0.2 cm cuvette. The plasmid DNA preloaded cells were inoculated with NF54 parasites expressing Cas9 and T7 RNA polymerase, maintained in 500 nM anhydrotetracycline (aTc, Sigma-Aldrich 37919), and drug selection with 2.5 μg/mL of Blasticidin (RPI Corp B12150-0.1) was initiated four days after transfection. Emergence of transfectants was monitored via Giemsa smears and RLuc measurements.
(§4) Synchronized ring-stage cKD parasites in varying aTc concentrations (high = 50 nM, intermediate = 1.5 nM, low = 1 nM, and no aTc) were distributed into the drug plate. No-drug treatment and treatment with a lethal dose of chloroquine (200 nM) served as reference controls.

[5] = target: PP1 cKD line; assay: as above; format: cell-based, Plasmodium falciparum
Description: as §2, §3, §4

[6] = target: CDPK1 cKD line; assay: as above; format: cell-based, Plasmodium falciparum; conditions: CDPK1 cKD line
Description: as §2, §3, §4

[7] = target: TKL3 cKD line; assay: as above; format: cell-based, Plasmodium falciparum; conditions: TKL3 cKD line
Description: as §2, §3, §4

[8] = target: PKG cKD line; assay: as above; format: cell-based, Plasmodium falciparum; conditions: PKG cKD line
Description: as §2, §3, §4

[9] = target: AAT cKD line; assay: as above; format: cell-based, Plasmodium falciparum; conditions: AAT cKD line
Description: as §2, §3, §4

[10] = target: T1, calcium-dependent protein kinase 1 (CDPK1) (PF3D7_0217500) (Plasmodium falciparum, UniProt P62344); assay: Competitive chemoproteomics in Pf lysates (Kinobeads / bead-immobilized compound); format: binding; conditions: lysates exposed to 40 μM of the same compound vs vehicle
T1 construct: endogenous in cells; host or cells: P. falciparum asexual blood-stage parasites (trophozoite stage)
T1 sequence (P62344 whole entry): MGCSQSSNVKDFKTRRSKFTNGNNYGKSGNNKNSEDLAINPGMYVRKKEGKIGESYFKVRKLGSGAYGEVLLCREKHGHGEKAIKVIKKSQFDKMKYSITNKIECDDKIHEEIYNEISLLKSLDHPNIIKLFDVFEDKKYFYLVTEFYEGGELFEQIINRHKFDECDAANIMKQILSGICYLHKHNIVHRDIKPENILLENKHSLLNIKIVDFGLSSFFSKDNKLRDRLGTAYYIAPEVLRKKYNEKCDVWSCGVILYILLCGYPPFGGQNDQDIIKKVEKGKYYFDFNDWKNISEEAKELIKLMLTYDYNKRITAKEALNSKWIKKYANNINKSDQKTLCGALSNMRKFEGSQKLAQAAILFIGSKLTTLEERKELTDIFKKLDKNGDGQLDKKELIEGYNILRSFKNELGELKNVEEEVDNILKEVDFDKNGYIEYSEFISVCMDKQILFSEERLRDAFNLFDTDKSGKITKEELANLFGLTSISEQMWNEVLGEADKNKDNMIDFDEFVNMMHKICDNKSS
Experimental: (§5) Pf protein extracts were prepared as described elsewhere ([Paquet et al., 2017]). Parasite cultures at the trophozoite stage were harvested, washed twice in RPMI 1640 medium (Gibco), and lysed by the addition of saponin to a final concentration of 0.1% for 5 min at room temperature. Free parasites were sedimented by centrifugation (3500 rpm for 10 min), washed three times with phosphate-buffered saline, and stored at −80°C. Parasites were resuspended in cell lysis buffer (50 mM tris-HCl (pH 7.5), 5% glycerol, 1.5 mM MgCl2, […], 1 mM […], 25 mM sodium fluoride, 0.8% NP-40, EDTA-free protease inhibitor cocktail tablets (Roche Diagnostics), and 1 mM DTT) and disrupted by sonication (Sonics Vibra-Cell) using two 30-s cycles on ice at half-amplitude. After centrifugation (140,000g for 1 h at 4°C), soluble proteins were recovered from the supernatants, and protein concentrations of each sample were estimated using the Lowry-based DC assay (Bio-Rad). Samples were stored at −80°C until use.
(§6) Kinobeads were prepared by immobilizing Bis-(III) indolyl-maleimide, purvalanol B, staurosporine and CZC8004, and the analogs of PD173955, sunitinib and vandetanib on NHS-activated Sepharose 4 beads (Amersham) ([Bantscheff et al., 2007]). […] The chemoproteomic affinity-capturing experiments were performed as previously described ([Bantscheff et al., 2011]). Briefly, beads were washed and equilibrated in lysis buffer (50 mM Tris-HCl, pH 7.4, 0.4 % Igepal-CA630, 1.5 mM MgCl2, 5 % Glycerol, 150 mM NaCl, 25 mM NaF, 1 mM Na3VO4, 1 mM DTT, and one cOmplete EDTA-free protease inhibitor tablet (Roche) per 25 mL). The beads were incubated at 4°C for 1 h with either 0.1 ml (0.3 mg) Pf blood stage extract or 0.5 mL (2.5 mg) human cell/tissue protein extract (a mixture of HEK-293, K-562, Hep G2 , and placental cells), which was pre-incubated with compound or DMSO (vehicle control). 10 samples were measured in parallel (TMT 10-plex ([Werner et al., 2014])) to generate values for the affinity of the beads to the bound proteins (“depletion” values, 4 samples) and to generate IC50 values (6 samples) in a single experiment. Apparent dissociation constants were determined after accounting for protein depletion by the beads ([Bantscheff et al., 2011]). Beads were transferred to Filter plates (Durapore PVDF membrane, Merck Millipore), washed with lysis buffer, and eluted with SDS sample buffer.
(§7) Proteins were digested according to a modified single pot solid-phase sample preparation (SP3) protocol ([Hughes et al., 2014]). Peptides were labeled with isobaric mass tags (Thermo Fisher Scientific, Waltham, MA) using 10-plex TMT reagents, enabling relative quantification of 10 conditions in a single experiment ([Werner et al., 2014]). The labeling reactions and LC-MS/MS measurements using Q Exactive Orbitrap or Orbitrap Fusion Lumos mass spectrometers (Thermo Fisher Scientific) were performed as described elsewhere ([Sridharan et al., 2019]). Mascot 2.4 (Matrix Science, Boston, MA) was used for protein identification by using a 10 parts per million mass tolerance for peptide precursors and 20 mD (HCD) mass tolerance for fragment ions. To create the fasta file for mascot searching, all proteins corresponding to the taxonomy ‘Plasmodium falciparum (isolate 3D7)’ were downloaded from Uniprot (release 20170621) and supplemented with common contaminant protein sequences of bovine serum albumin, porcine trypsin and mouse, rat, sheep and dog keratins. To assess the false discovery rate (FDR), “decoy” proteins (reverse of all protein sequences) were created and added to the database, resulting in a database containing a total of 14266 protein sequences, with 50% forward and 50% reverse. For peptide and protein identification of human proteins see ([Sridharan et al., 2019]). […]

[11] = target: putative amino acid transporter (AAT) (PF3D7_1231400) (Plasmodium falciparum, UniProt Q8I5A6); assay: as above; format: binding; conditions: lysates exposed to 40 μM of the same compound vs vehicle
Chain of putative amino acid transporter (AAT) (PF3D7_1231400) (Q8I5A6 entry or part of it): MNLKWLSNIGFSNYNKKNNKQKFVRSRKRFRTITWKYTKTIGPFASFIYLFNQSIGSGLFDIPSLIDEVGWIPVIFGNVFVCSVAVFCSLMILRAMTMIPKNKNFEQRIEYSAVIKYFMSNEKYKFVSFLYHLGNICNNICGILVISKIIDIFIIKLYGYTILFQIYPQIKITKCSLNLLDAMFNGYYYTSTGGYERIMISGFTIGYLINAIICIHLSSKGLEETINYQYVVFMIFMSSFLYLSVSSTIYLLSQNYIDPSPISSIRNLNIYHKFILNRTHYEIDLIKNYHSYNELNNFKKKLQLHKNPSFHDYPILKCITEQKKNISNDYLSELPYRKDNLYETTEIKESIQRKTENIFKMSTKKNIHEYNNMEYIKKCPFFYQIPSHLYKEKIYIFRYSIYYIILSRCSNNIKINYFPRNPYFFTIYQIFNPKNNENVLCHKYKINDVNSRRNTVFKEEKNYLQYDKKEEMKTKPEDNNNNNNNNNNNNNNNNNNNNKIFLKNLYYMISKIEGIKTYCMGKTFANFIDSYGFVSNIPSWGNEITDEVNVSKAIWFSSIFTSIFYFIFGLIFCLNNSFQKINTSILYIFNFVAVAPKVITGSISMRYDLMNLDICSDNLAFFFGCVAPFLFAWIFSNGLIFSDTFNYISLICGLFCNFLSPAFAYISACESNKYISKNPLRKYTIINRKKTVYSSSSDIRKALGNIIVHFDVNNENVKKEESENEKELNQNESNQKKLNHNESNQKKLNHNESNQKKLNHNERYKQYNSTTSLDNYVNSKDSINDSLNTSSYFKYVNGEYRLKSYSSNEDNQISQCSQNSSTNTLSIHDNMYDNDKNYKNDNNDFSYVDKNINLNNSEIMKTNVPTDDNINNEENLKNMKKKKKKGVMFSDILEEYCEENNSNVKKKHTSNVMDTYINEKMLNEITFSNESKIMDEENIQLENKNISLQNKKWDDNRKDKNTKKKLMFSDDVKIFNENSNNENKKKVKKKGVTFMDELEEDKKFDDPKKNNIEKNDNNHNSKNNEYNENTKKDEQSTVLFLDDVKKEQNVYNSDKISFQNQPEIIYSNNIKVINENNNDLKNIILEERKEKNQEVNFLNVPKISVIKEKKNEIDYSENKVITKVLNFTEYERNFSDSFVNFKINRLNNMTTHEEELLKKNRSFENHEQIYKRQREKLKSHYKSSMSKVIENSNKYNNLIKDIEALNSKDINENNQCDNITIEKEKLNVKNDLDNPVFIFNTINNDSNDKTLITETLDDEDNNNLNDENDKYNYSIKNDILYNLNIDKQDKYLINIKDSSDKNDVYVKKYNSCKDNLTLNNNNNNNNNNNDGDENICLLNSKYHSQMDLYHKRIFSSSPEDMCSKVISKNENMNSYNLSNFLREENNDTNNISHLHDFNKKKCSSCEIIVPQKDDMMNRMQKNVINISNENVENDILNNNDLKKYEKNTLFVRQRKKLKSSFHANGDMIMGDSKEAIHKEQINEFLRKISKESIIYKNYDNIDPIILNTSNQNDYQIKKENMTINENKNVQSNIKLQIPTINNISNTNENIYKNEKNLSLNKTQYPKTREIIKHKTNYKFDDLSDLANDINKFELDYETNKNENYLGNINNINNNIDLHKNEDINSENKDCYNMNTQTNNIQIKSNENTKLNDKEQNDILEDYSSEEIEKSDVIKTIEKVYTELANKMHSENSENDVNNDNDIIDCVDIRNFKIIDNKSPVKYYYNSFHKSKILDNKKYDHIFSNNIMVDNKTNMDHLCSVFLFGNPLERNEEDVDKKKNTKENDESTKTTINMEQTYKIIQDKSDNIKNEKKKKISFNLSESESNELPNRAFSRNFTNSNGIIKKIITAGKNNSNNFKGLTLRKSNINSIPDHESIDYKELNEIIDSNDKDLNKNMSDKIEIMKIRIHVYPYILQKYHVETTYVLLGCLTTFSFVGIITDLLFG
Experimental: as §5, §6, §7

[12] = target: T2, cGMP-dependent protein kinase (PKG) (PF3D7_1436600) (Plasmodium falciparum, UniProt Q8I719); assay: as above; format: binding; conditions: lysates exposed to 40 μM of the same compound vs vehicle
T2 construct: The beads were incubated at 4°C for 1 h with either 0.1 ml (0.3 mg) Pf blood stage extract; endogenous in cells; host or cells: P. falciparum asexual blood-stage parasites (trophozoite stage), saponin-freed and lysed
T2 sequence (Q8I719 whole entry): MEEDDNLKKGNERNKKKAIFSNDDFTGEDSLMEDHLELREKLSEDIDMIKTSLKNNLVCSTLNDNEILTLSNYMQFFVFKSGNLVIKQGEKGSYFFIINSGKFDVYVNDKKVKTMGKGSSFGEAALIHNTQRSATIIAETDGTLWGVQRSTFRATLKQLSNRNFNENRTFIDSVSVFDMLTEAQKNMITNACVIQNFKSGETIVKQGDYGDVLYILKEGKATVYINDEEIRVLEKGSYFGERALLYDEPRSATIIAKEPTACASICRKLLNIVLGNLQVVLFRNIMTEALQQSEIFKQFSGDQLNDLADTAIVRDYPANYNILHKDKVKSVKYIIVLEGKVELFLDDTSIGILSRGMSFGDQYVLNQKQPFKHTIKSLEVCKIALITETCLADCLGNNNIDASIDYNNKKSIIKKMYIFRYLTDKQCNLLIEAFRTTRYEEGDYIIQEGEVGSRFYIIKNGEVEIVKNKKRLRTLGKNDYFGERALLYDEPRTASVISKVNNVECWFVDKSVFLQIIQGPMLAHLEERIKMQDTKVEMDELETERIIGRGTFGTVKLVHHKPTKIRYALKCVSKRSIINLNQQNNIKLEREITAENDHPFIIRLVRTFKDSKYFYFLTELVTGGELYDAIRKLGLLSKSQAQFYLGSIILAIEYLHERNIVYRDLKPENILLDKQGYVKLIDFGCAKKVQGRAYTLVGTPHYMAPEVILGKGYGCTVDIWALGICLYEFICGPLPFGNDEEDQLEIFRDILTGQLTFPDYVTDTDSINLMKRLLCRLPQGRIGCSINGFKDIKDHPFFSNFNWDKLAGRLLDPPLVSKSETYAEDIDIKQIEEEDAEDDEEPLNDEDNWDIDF
Experimental: Parasite cultures at the trophozoite stage were harvested, washed twice in RPMI 1640 medium (Gibco), and lysed by the addition of saponin to a final concentration of 0.1% for 5 min at room temperature. Free parasites were sedimented by centrifugation (3500 rpm for 10 min), washed three times with phosphate-buffered saline, and stored at −80°C. Parasites were resuspended in cell lysis buffer (50 mM tris-HCl (pH 7.5), 5% glycerol, 1.5 mM MgCl2, 1.5 mM NaCl, 1 mM Na3PO4, 25 mM sodium fluoride, 0.8% NP-40, EDTA-free protease inhibitor cocktail tablets (Roche Diagnostics), and 1 mM DTT) and disrupted by sonication (Sonics Vibra-Cell) using two 30-s cycles on ice at half-amplitude. […]
Kinobeads were prepared by immobilizing Bis-(III) indolyl-maleimide, purvalanol B, staurosporine and CZC8004, and the analogs of PD173955, sunitinib and vandetanib on NHS-activated Sepharose 4 beads (Amersham) ([Bantscheff et al., 2007]). […] 10 samples were measured in parallel (TMT 10-plex ([Werner et al., 2014])) to generate values for the affinity of the beads to the bound proteins (“depletion” values, 4 samples) and to generate IC50 values (6 samples) in a single experiment. Apparent dissociation constants were determined after accounting for protein depletion by the beads ([Bantscheff et al., 2011]). […]

[13] = tested on: B-raf kinase; conditions: ref Gamo et al., 2010; cited from earlier work

Compound | Reduction in TKL3 kinase activity [1] | IC50 [2] | IC50 [3] | other results
CC(C)(CN)c1nc(-c2ccc(Cl)c(O)c2)c(-c2ccnc(N)n2)[nH]1 [MMV030734] | no reduction | 0.065 µM and 0.0653 µM | 0.197 µM | IC50 ([4]; Control, [aTc] used 50.0): 0.034 µM; IC50 ([4]; KD, [aTc] used 0.0): 0.0445 µM; IC50 ([5]; Control, [aTc] used 50.0): 0.0295 µM; IC50 ([5]; KD, [aTc] used 1.5): 0.0367 µM; IC50 ([6]; Control, [aTc] used 50.0): 0.0211 µM; IC50 ([6]; KD, [aTc] used 1.0): 0.018 µM; IC50 ([7]; Control, [aTc] used 50.0): 0.0375 µM; IC50 ([7]; KD, [aTc] used 0.0): 0.0808 µM; IC50 ([8]; Control, [aTc] used 50.0): 0.0208 µM; IC50 ([8]; KD, [aTc] used 1.0): 0.0084 µM; IC50 ([9]; Control, [aTc] used 50.0): 0.0426 µM; IC50 ([9]; KD, [aTc] used 0.0): 0.0185 µM
CC(C)(CN)c1nc(-c2ccc(Br)c(O)c2)c(-c2ccncc2)[nH]1 [TCMDC-140680] |  | 0.0859 µM | 0.249 µM | 
CN1CCC=C(C(=O)NCC(C)(C)c2nc(-c3ccc(Cl)c(O)c3)c(-c3ccncc3)[nH]2)C1 [TCMDC-140700] |  | 0.395 µM | 1.19 µM | 
CNCC(C)(C)c1nc(-c2ccc(Cl)c(O)c2)c(-c2ccncc2)[nH]1.Cl [TCMDC-140762] | no reduction | 0.187 µM | 0.443 µM | 
CC(C)(CNC(=O)[C@H]1CCCN1)c1nc(-c2ccc(Cl)c(O)c2)c(-c2ccncc2)[nH]1 [TCMDC-141060] |  | 0.18 µM | 0.59 µM | 
CC(C)(CNC(=O)[C@H]1CCCCN1)c1nc(-c2ccc(Cl)c(O)c2)c(-c2ccncc2)[nH]1 [TCMDC-141070] |  | 0.186 µM | 0.717 µM | 
CC(C)(CNC(=O)[C@@H]1CCCCN1)c1nc(-c2ccc(Cl)c(O)c2)c(-c2ccncc2)[nH]1.Cl [TCMDC-141079] | no reduction | 0.25 µM | 0.771 µM | 
Cl.NCC1(c2nc(-c3ccc(Cl)c(O)c3)c(-c3ccncc3)[nH]2)CCCCC1 [TCMDC-141154] |  | 0.14 µM | 0.369 µM | CDPK1 pull-down by bead-bound compound [10]: pulled down; AAT pull-down by bead-bound compound [11]: pulled down; PKG pull-down by bead-bound compound [12]: pulled down
CC(C)(CN)c1cc(-c2ccc(Cl)c(O)c2)c(-c2ccncc2)o1.Cl [TCMDC-141334] |  | 0.277 µM | 0.599 µM | Reported kinase inhibitor activity [13]: B-raf kinase inhibitor
